The target in data set [1] is T1, human norepinephrine transporter (Homo sapiens, UniProt P23975).
T1 construct: host or cells: HEK-293
The experiment in a line: hNET receptor binding ([125I]-RTI-55, membranes of transfected HEK-293 cells). The note with it: 50 pM [125I]-RTI-55, 90 min room temperature; IC50 converted by Cheng-Prusoff. The essentials:
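Competition binding on membranes from HEK-293 cells transfected with human NET, using 50 pM [125I]-RTI-55 in Krebs-HEPES pH 7.4, drug 10^−5 to 10^−12 M in duplicate, 90 min at room temperature, filtration. Nonspecific binding defined with 10 μM desipramine; IC50 converted to Ki by Cheng-Prusoff.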

Data set [2] concerns the target T2, human serotonin transporter (Homo sapiens, UniProt P31645).
T2 construct: host or cells: HEK-293
Kind of data set: hSERT receptor binding ([125I]-RTI-55, membranes of transfected HEK-293 cells). The note with it: 50 pM [125I]-RTI-55, 90 min room temperature; IC50 converted by Cheng-Prusoff. In short, it runs like this:
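Membranes of HEK-293 cells expressing human SERT incubated 90 min at room temperature with 50 pM [125I]-RTI-55 and compound (10^−5 to 10^−12 M) in Krebs-HEPES, pH 7.4. Nonspecific binding defined with 10 μM citalopram; IC50 converted to Ki by Cheng-Prusoff.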

Where only a bound is given, the exact number is not on record here.

The values below come from patent US20050096327A1, “Novel norepinephrine reuptake inhibitors for the treatment of central nervous system disorders” (priority 2003, published 2005).

T1 sequence (P23975 whole entry): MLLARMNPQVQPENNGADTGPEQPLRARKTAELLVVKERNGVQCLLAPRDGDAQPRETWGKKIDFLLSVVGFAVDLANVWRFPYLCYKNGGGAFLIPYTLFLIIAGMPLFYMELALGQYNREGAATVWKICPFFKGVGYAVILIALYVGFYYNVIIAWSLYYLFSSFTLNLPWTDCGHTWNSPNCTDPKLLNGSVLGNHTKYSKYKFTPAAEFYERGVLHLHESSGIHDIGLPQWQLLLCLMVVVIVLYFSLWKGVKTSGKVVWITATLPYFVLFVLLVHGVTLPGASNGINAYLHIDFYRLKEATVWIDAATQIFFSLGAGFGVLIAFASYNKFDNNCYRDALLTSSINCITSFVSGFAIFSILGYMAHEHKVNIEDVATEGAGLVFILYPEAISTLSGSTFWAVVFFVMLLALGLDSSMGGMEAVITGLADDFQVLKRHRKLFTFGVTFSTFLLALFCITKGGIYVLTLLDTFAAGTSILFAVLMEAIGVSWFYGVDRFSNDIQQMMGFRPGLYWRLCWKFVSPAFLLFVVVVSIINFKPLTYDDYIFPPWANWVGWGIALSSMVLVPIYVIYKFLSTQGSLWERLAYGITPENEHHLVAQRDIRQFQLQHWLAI
T2 sequence (P31645 whole entry): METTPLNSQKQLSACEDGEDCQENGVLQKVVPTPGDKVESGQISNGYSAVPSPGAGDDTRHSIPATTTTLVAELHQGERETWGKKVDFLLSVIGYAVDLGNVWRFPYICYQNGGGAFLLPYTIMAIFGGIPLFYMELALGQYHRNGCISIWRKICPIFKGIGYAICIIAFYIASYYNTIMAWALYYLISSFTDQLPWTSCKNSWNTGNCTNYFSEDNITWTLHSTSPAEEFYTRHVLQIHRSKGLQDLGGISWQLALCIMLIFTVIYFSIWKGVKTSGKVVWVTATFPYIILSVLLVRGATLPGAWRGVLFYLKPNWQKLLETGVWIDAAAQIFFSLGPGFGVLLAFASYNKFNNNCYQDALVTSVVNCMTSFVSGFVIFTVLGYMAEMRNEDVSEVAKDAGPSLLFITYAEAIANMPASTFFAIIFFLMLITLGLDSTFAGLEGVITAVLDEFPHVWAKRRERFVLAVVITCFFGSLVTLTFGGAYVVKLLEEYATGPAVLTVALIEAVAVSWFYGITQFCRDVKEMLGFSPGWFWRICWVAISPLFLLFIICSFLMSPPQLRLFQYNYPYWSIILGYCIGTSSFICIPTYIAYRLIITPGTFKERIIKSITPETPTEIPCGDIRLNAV

For the compound `Fc1cccc(-c2nc(N3CCCNCC3)nc3ccccc23)c1F` [Example 57, 2-[1,4]Diazepan-1-yl-4-(2,3-difluoro-phenyl)-quinazoline], the melting point (in general, the temperature of the solid-liquid transition) was 203 to 206 °C. In data set [1], affinity was put at a Ki of 4 nM.
With `CC1CN(c2nc(-c3ccccc3)c3ccccc3n2)C(C)CN1.Cl` (centres unmarked) [Example 9, 2-(2,5-Dimethyl-piperazin-1-yl)-4-phenyl-quinazoline hydrochloride], the melting point is 221 to 222 °C. Besides, the affinity in data set [1], expressed as Ki, was 22 nM.
For the compound `CN1CCN(c2nc(-c3ccccc3)c3ccccc3n2)CC1` [Example 1, 2-(4-Methyl-piperazin-1-yl)-4-phenyl-quinazoline], the melting point lay in the range of 101 to 122 °C. The inhibition constant (Ki) (commonly a measure of affinity in units of concentration, obtained from inhibition or displacement) in data set [1] turned out to be 29.7 nM.
The compound `Cl.N[C@H]1CCN(c2nc(-c3ccccc3F)c3ccccc3n2)C1` [Example 34, (S)-(+)-1-[4-(2-Fluoro-phenyl)-quinazolin-2-yl]-pyrrolidin-3-ylamine hydrochloride] registered a melting point of 285 to 287 °C. In addition, the inhibition constant (Ki) in data set [1] was 3.8 nM.
On the same counts, the results for `C[C@@H]1CNCCN1c1nc(-c2ccccc2)c2ccccc2n1.Cl` [Example 30, (R)-(−)-2-(2-Methyl-piperazin-1-yl)-4-phenyl-quinazoline hydrochloride] are 150 to 161 °C and 5.5 nM.
In turn, `Cl.NC1CCN(c2nc(-c3ccccc3)c3ccccc3n2)CC1` [Example 12, 1-(4-Phenyl-quinazolin-2-yl)-piperidin-4-ylamine hydrochloride] displayed a melting point of more than 300 °C. Besides, in data set [1], the inhibitory constant (Ki) stood at 95.5 nM.
`Cl.Fc1cccc(-c2nc(N3CCNCC3)nc3ccccc23)c1F` [Example 37, 4-(2,3-Difluoro-phenyl)-2-piperazin-1-yl-quinazoline hydrochloride] returned a melting point of 273 to 276 °C. Affinity in data set [1] was put at a Ki of 3 nM.
On the same counts, the results for `Cl.NCCC1CCCN(c2nc(-c3ccccc3)c3ccccc3n2)C1` (centres unmarked) [Example 11, 2-[1-(4-Phenyl-quinazolin-2-yl)-piperidin-3-yl]-ethylamine hydrochloride] are 86 to 88 °C and 80.5 nM.
As to `CN1CC2CCCC(C1)N2c1nc(-c2ccccc2)c2ccccc2n1` [Example 5, 2-(3-Methyl-3,9-diaza-bicyclo[3.3.1]non-9-yl)-4-phenyl-quinazoline], the melting point was in the range of 118 to 121 °C. The affinity in data set [1] corresponds to a Ki of 42 nM.
On the same counts, the results for `Cl.c1ccc(-c2nc(N3CC4CCCC(C3)N4)nc3ccccc23)cc1` [Example 32, 2-(3,9-Diaza-bicyclo[3.3.1]non-3-yl)-4-phenyl-quinazoline hydrochloride] are more than 300 °C and 38.5 nM.
On the same counts, the results for `Cl.Fc1ccccc1-c1nc(N2CCCNCC2)nc2ccccc12` [Example 21, 2-[1,4]Diazepan-1-yl-4-(2-fluoro-phenyl)-quinazoline hydrochloride] are 190 to 192 °C and 3.7 nM.
Compound `Cl.N[C@@H]1CCN(c2nc(-c3ccccc3)c3ccccc3n2)C1` [Example 16, (R)-(−)1-(4-Phenyl-quinazolin-2-yl)-pyrrolidin-3-yl-amine hydrochloride] gave a melting point of 261 to 265 °C. The compound also registered a Ki in data set [1] of 31 nM.
On the same counts, the results for `COC(=O)C1(c2nc(-c3ccccc3)c3ccccc3n2)CCNCC1.Cl` [Example 50, 4-(4-Phenyl-quinazolin-2-yl)piperidine-4-carboxylic acid methyl ester hydrochloride] are 227 to 228 °C and 9.8 nM.
In turn, `Cl.N[C@H]1CCCN(c2nc(-c3ccccc3F)c3ccccc3n2)C1` [Example 40, (S)-(+)-1-[4-(2-Fluoro-phenyl)-quinazolin-2-yl]-piperidin-3-ylamine hydrochloride] gave a melting point of 288 to 289 °C. Also, the Ki in data set [1] came out at 18 nM.
Take `Cl.Fc1cccc(Cl)c1-c1nc(N2CCNCC2)nc2ccccc12` [Example 36, 4-(2-Chloro-6-fluoro-phenyl)-2-piperazin-1-yl-quinazoline hydrochloride]: the melting point is 266 to 268 °C. The compound also came in with an inhibition constant Ki in data set [1] of 4 nM.
In turn, `COC(=O)C1(c2nc(-c3ccccc3)c3ccccc3n2)CCCNC1.Cl` (centres unmarked) [Example 52, 3-(4-Phenyl-quinazolin-2-yl)-piperidine-3-carboxylic acid methyl ester hydrochloride] came in with a melting point of 143 to 145 °C. Also, the inhibitory constant (Ki) in data set [1] was determined as 53.4 nM.
In turn, `C[C@H]1CNCCN1c1nc(-c2ccccc2)c2ccccc2n1.Cl` [Example 15, (S)-(+)-2-(2-Methyl-piperazin-1-yl)-4-phenyl-quinazoline hydrochloride] returned a melting point of 154 to 157 °C. Besides, the inhibition constant Ki in data set [1] turned out to be 4.6 nM.
On the same counts, the results for `Fc1ccc2c(-c3ccccc3F)nc(N3CCNCC3)nc2c1` [Example 59, 7-Fluoro-4-(2-fluoro-phenyl)-2-piperazin-1-yl-quinazoline] are 147 to 148 °C and 2.7 nM.
On the same counts, the results for `Cc1ccc(-c2nc(N3CCN(C)CC3)nc3ccccc23)cc1` [Example 2, 2-(4-Methyl-piperazin-1-yl)-4-p-tolyl-quinazoline] are 85 to 87 °C and 77.3 nM.
On the same counts, the results for `CN1CCN(c2nc(-c3cccs3)c3ccccc3n2)CC1.O=C(O)C(=O)O` [Example 27, 2-(4-Methyl-piperazin-1-yl)-4-thiophen-2-yl-quinazoline oxalate] are 216 to 217 °C and 67.4 nM.
In turn, `CC(C)c1nc(N2CCCNCC2)nc2ccccc12.Cl` [Example 8, 2-[1,4]Diazepan-1-yl-4-isopropyl-quinazoline hydrochloride] returned a melting point of 193 to 194 °C. The inhibition constant (Ki) in data set [1] was 4.8 nM.
On the same counts, the results for `CC(C)c1nc(N2CCNCC2)nc2ccccc12.Cl` [Example 6, 4-Isopropyl-2-piperazin-1-yl-quinazoline hydrochloride] are 253 to 254 °C and 16.5 nM.
The compound `Cl.Fc1ccccc1-c1nc(N2CCNCC2)nc2ccccc12` [Example 20, 4-(2-Fluoro-phenyl)-2-piperazin-1-yl-quinazoline hydrochloride] yielded a melting point of 276 to 277 °C. The compound further displayed a Ki in data set [2] of 12 nM. Further, the affinity in data set [1] corresponds to a Ki of 1.7 nM.
In turn, `Cc1ccccc1-c1nc(N2CCN(C)CC2)nc2ccccc12` [Example 4, 2-(4-Methyl-piperazin-1-yl)-4-o-tolyl-quinazoline] came in with a melting point of 91 to 94 °C. Also, affinity in data set [1] was put at a Ki of 34.1 nM.
The compound `Cl.c1ccc(-c2nc(N3CCCNCC3)nc3ccccc23)cc1` [Example 7, 2-[1,4]Diazepan-1-yl-4-phenyl-quinazoline hydrochloride] returned a melting point of 230 to 231 °C. This compound also showed a Ki in data set [1] of 2 nM.
Turning to `CN1CCN(c2nc(-c3ccc(F)cc3)c3ccccc3n2)CC1` [Example 25, 4-(4-Fluoro-phenyl)-2-(4-methyl-piperazin-1-yl)-quinazoline], the melting point is 130 to 131 °C. The same compound displayed a Ki in data set [1] of 82 nM.
`COC(=O)C1(c2nc(-c3ccccc3F)c3ccccc3n2)CCNCC1.Cl` [Example 51, 4-[4-(2-Fluoro-phenyl)-quinazolin-2-yl]-piperidine-4-carboxylic acid methyl ester hydrochloride] registered a melting point of 210 to 211 °C. In data set [1], this compound gave a Ki of 15.1 nM.
On the same counts, the results for `CN1CCN(c2nc(-c3ccccc3F)c3ccccc3n2)CC1` [Example 18, 4-(2-Fluoro-phenyl)-2-(4-methyl-piperazin-1-yl)-quinazoline] are 123 to 124 °C and 12 nM.
`CC1CN(c2nc(-c3ccccc3)c3ccccc3n2)CCN1` (centres unmarked) [Example 54, 2-(3-Methyl-piperazin-1-yl)-4-phenyl-quinazoline]: the melting point lay within 107 to 108 °C. This compound also came in with an inhibition constant Ki in data set [1] of 41 nM.
